The text below walks through data of patent US7482461B2, “Sulfonyl-3-heterocyclylindazole derivatives as 5-hydroxytryptamine-6 ligands” (Wyeth, priority 2006, dated 2009).

Structures are written as SMILES. Where a name gives a salt, the structure may show the parent alone.

The target in the assay is human cloned 5-HT6 receptors (Homo sapiens, UniProt P50406).
human cloned 5-HT6 receptors, sequence (P50406 whole entry): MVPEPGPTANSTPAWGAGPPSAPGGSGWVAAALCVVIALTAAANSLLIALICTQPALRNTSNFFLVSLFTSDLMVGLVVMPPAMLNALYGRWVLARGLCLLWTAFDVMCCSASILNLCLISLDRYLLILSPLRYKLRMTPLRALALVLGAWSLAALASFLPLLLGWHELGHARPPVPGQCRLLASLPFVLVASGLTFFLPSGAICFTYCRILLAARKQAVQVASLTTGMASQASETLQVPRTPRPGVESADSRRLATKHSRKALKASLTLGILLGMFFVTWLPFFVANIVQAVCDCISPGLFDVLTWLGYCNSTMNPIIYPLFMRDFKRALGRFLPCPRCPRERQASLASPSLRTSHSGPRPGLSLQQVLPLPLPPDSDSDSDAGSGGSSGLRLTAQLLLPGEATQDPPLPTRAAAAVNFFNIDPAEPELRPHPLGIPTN
Take `CN1CCC(c2n[nH]c3ccc(S(=O)(=O)c4cccc5ccccc45)cc23)CC1` [Example 4, 3-(1-Methylpiperidin-4-yl)-5-(1-naphthylsulfonyl)-1H-indazole hydrochloride]: the inhibitory constant (Ki) amounted to 3.8 nM.

`CN1CCC(c2n[nH]c3ccc(S(=O)(=O)c4ccccc4)cc23)CC1` [Example 5, 3-(1-methylpiperidin-4-yl)-5-(phenylsulfonyl)-1H-indazole]: the Ki was determined as 55 nM.

`CN1CCC(c2n[nH]c3ccc(S(=O)(=O)c4cccc(F)c4)cc23)CC1` [Example 6, 5-[(3-fluorophenyl)sulfonyl]-3-(1-methylpiperidin-4-yl)-1H-indazole]: the inhibition constant (Ki) stood at 93 nM.

`CN1CCC(c2n[nH]c3ccc(S(=O)(=O)c4cccc(Cl)c4)cc23)CC1` [Example 7, 5-[(3-chlorophenyl)sulfonyl]-3-(1-methylpiperidin-4-yl)-1H-indazole] gave an inhibition constant Ki of 19 nM.

On to `CN1CCC(c2n[nH]c3ccc(S(=O)(=O)c4ccc(F)cc4)cc23)CC1` [Example 8, 5-[(4-fluorophenyl)sulfonyl]-3-(1-methylpiperidin-4-yl)-1H-indazole], for which the affinity corresponds to a Ki of 66 nM.

`Cc1cccc(S(=O)(=O)c2ccc3[nH]nc(C4CCN(C)CC4)c3c2)c1` [Example 9, 5-[(3-methylphenyl)sulfonyl]-3-(1-methylpiperidin-4-yl)-1H-indazole] came in with a Ki of 50 nM. The Ki values of the last two compounds are within 1.5-fold of each other.

`CN1CCC(c2n[nH]c3ccc(S(=O)(=O)c4ccc(C(F)(F)F)cc4)cc23)CC1` [Example 10, 3-(1-methylpiperidin-4-yl)-5-{[4-(trifluoromethyl)phenyl]sulfonyl}-1H-indazole] showed a Ki of 46 nM.

Consider `CN1CCC(c2n[nH]c3ccc(S(=O)(=O)c4ccc(OC(F)(F)F)cc4)cc23)CC1` [Example 11, 3-(1-methylpiperidin-4-yl)-5-{[4-(trifluoromethoxy)phenyl]sulfonyl}-1H-indazole], for which the Ki stood at 48 nM.

On to `CC(C)c1ccc(S(=O)(=O)c2ccc3[nH]nc(C4CCN(C)CC4)c3c2)cc1` [Example 12, 5-[4-(isopropylphenyl)sulfonyl]-3-(1-methylpiperidin-4-yl)-1H-indazole], for which the inhibitory constant (Ki) turned out to be 14 nM.

Consider `CN1CCC(c2n[nH]c3ccc(S(=O)(=O)c4ccc5ccccc5c4)cc23)CC1` [Example 13, 3-(1-methylpiperidin-4-yl)-5-(2-naphthylsulfonyl)-1H-indazole], for which the Ki stood at 9.6 nM.

`COc1ccc(S(=O)(=O)c2ccc3[nH]nc(C4CCN(C)CC4)c3c2)cc1` [Example 14] came in with a Ki of 123 nM.

The Ki is the equilibrium dissociation constant of an inhibitor or competing ligand from its target. A lower Ki goes with higher affinity.
